From patent US8541601B2, “Piperazine dithioctate and pharmaceutical composition comprising the same” (Celltrion Chemical Research Institute, priority 2009, dated 2013)

Experiments:
[1] = assay type: physicochemical; conditions: for remaining rate of the active ingredient, Initial: 0 h; for remaining rate of the active ingredient, 3 days: 72 h; for remaining rate of the active ingredient, 7 days: 168 h; for remaining rate of the active ingredient, 14 days: 336 h; for remaining rate of the active ingredient, 28 days: 672 h
rats = conditions: rat, in vivo; cited from earlier work

remaining rate of the active ingredient, Initial [1]	remaining rate of the active ingredient, 3 days [1] [%]	remaining rate of the active ingredient, 7 days [1] [%]	remaining rate of the active ingredient, 14 days [1] [%]	remaining rate of the active ingredient, 28 days [1] [%]	SMILES	LD50 (the lethal dose causing death in 50% of rats on oral administration) (rats) [mg/kg]
100.0	100	100	100	100	O=C(O)CCCCC1CCSS1 (racemic) [Piperazine dithioctate, Piperazine Dithioctate]	
100.0	99.8	99.6	98.9	97.8	O=C(O)CCCCC1CCSS1 (stereo not shown) [Thioctic acid]	
100.0	100	100	100	100	NC(CO)(CO)CO.O=C(O)CCCCC1CCSS1 (stereo not shown) [Tromethamine thioctate, Tromethamine Thioctate]	
					C1CNCCN1 [piperazine]	1900
